The values that follow come from PMC8401767, “Spectroscopic Studies of Quinobenzothiazine Derivative in Terms of the In Vitro Interaction with Selected Human Plasma Proteins. Part 1” (Molecules, 2021).

Each structure is given as a SMILES string. Where a name gives a salt, the structure may show the parent alone.

Test [1] deals with T1, Human serum albumin (HSA) (Homo sapiens, UniProt P02768).
T1 construct: gene ALB
Kind of test: intrinsic protein fluorescence quenching, Klotz plot. It counts as binding. The following applies: λex 295 nm (Trp); pH 7.4, 0.05 M phosphate, 298 K; unit misprinted in table, L/mol by b49. The text has this: intrinsic protein fluorescence quenching, Klotz plot on Human serum albumin (HSA)

Test [2] has as its system T2, α-1-Acid glycoprotein (AGP, orosomucoid).
T2 construct: gene ORM1
The description is as above. It counts as binding, Homo sapiens. The following applies: λex 295 nm (Trp); pH 7.4, 0.05 M phosphate, 298 K; unit misprinted in table, L/mol by b49. From the text: intrinsic protein fluorescence quenching, Klotz plot on α-1-Acid glycoprotein (AGP, orosomucoid)

T1 sequence (P02768 25-609): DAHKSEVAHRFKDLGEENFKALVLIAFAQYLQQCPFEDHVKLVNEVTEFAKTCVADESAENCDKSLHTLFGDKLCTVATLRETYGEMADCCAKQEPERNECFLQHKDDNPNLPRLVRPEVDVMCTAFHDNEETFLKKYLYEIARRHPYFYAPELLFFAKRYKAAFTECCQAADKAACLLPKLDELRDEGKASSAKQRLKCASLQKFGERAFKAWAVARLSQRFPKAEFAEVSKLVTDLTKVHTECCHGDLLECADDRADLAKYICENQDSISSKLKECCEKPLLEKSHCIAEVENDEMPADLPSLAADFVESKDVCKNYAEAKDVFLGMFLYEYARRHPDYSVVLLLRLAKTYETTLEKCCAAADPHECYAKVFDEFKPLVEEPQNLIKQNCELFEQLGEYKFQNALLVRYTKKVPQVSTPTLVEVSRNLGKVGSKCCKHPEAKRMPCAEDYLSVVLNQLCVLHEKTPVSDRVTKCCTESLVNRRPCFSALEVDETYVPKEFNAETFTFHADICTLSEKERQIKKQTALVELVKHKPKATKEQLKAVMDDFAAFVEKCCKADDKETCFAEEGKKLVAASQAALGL

In the case of `C[n+]1cc2c(c3ccccc31)Nc1ccccc1S2` [Salt1, 5-methyl-12(H)-chino[3,4-b][1,4]benzothiazinium chloride], the entries for the “λex 295 nm / (Ka. 10^4) ±SD * (mol.L^-1)” value in test [1] and in test [2] were 2.71 ± 0.01 ·10^4 and 7.86 ± 0.03 ·10^4, respectively.
